Reference: PubChem BioAssay AID588480 (Broad Institute, 2011)
Values joined by “and” are separate entries in the source; they are usually repeats but may differ in a detail not shown here. Identical values can stand only once. Records with an inconclusive call do not appear. Active and inactive are the calls of the source.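 Rule for the calls: active = compounds whose fitted half-maximal concentration stays within ten times the top tested dose in every test run; inconclusive = runs disagree, or a flat partial drop or poor fit; inactive = every run inactive, including flat curves and signal rises.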

Biological target: Serine/threonine-protein kinase 33 (Homo sapiens) (UniProt Q9BYT3)
Assay: STK33 kinase inhibitors, potency, dose response, biochemical, ADP-Glo luminescence, dry powder, set 2 (AID 588480)
Conditions: purified STK33, MBP phosphorylation; for activity change, negative = inhibition: at 10 µM (top of the series)

Serine/threonine-protein kinase 33 (Homo sapiens), sequence (Q9BYT3 whole entry, looked up): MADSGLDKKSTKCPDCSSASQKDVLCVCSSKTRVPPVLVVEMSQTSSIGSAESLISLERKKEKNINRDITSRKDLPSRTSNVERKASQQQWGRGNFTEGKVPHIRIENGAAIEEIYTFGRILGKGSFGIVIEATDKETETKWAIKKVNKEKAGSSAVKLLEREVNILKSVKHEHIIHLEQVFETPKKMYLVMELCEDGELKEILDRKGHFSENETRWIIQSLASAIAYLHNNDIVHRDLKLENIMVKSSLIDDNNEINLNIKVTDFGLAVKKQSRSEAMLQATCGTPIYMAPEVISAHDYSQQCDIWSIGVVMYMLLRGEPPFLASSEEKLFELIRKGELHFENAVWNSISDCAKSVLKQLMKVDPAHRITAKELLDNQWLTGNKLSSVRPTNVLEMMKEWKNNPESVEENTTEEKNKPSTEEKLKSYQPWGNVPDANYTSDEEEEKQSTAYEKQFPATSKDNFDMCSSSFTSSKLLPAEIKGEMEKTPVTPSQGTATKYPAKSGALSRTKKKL

O=c1[nH]c2ccccc2nc1-c1ccccc1NCc1cccs1
activity change, negative = inhibition: inactive

COc1ccccc1Nc1nc(O)c(/C=C2/C=c3ccccc3=N2)s1
activity change, negative = inhibition: inactive

O=C(Nc1ccccc1-c1nc2ccccc2[nH]c1=O)c1cccs1
AC50: 285 nM and 308 nM

O=C(Nc1ccccc1-c1nc2ccccc2[nH]c1=O)c1cccnc1
AC50: 582 nM

COc1ccccc1N=C1NC(=O)/C(=C/c2cccn2C)S1
activity change, negative = inhibition: inactive

COc1ccccc1N=C1NC(=O)CS1
activity change, negative = inhibition: inactive

COc1ccc(C(=O)Nc2ccccc2-c2nc3ccccc3[nH]c2=O)cc1
AC50: 977 nM

Nc1ccccc1-c1nc2ccccc2[nH]c1=O
activity change, negative = inhibition: inactive

COc1ccccc1N=C1NC(=O)/C(=C/C(C)C)S1
activity change, negative = inhibition: inactive

COc1cc(/C=C2\SC(=Nc3ccccc3OC)NC2=O)ccc1O
AC50: 250 nM and 321 nM

O=C(Nc1ccccc1-c1nc2ccccc2[nH]c1=O)c1ccc(F)cc1
AC50: 152 nM

COc1ccccc1N=C1NC(=O)/C(=C/c2cc(C)on2)S1
activity change, negative = inhibition: inactive

O=C1NC(=NCc2ccccc2)S/C1=C/c1ccc(O)cc1
AC50: 245 nM

O=C(Nc1ccccc1-c1nc2ccccc2[nH]c1=O)c1ccncc1
AC50: 7690 nM

COc1ccccc1N=C1NC(=O)/C(=C/c2ccc3c(c2)OCCO3)S1
AC50: 1280 nM

COc1ccc(/C=C2\SC(=Nc3ccccc3OC)NC2=O)cc1
AC50: 2250 nM

COc1ccccc1N=C1NC(=O)/C(=C/c2ccc3c(c2)OCO3)S1
AC50: 5410 nM

O=C(Nc1ccccc1-c1nc2ccccc2[nH]c1=O)c1ccccn1
AC50: 76 nM

COc1ccccc1N=C1NC(=O)/C(=C/c2ccc(O)cc2)S1
AC50: 911 nM

COc1ccccc1/C=C1\SC(=Nc2ccccc2OC)NC1=O
activity change, negative = inhibition: inactive

O=C(Nc1ccccc1-c1nc2ccccc2[nH]c1=O)C1CCCCC1
activity change, negative = inhibition: inactive

COc1ccccc1N=C1NC(=O)/C(=C/c2cccc(F)c2)S1
activity change, negative = inhibition: inactive

COc1cc(/C=C2\SC(N)=NC2=O)ccc1O
AC50: 466 nM

COc1ccccc1N=C1NC(=O)/C(=C/c2ccc(OC(F)(F)F)cc2)S1
activity change, negative = inhibition: inactive

O=C(Nc1ccccc1-c1nc2ccccc2[nH]c1=O)c1cc2ccccc2s1
AC50: 8510 nM

O=C(Nc1ccccc1-c1nc2ccccc2[nH]c1=O)c1cccc(Cl)c1
AC50: 709 nM

COc1cc(/C=C2\SC(=Nc3ccccc3OC)NC2=O)ccc1F
AC50: 9910 nM

COc1ccccc1N=C1NC(=O)/C(=C/c2cccc(Cl)c2)S1
activity change, negative = inhibition: inactive

O=C(Nc1ccccc1-c1nc2ccccc2[nH]c1=O)c1cccc(F)c1
AC50: 2430 nM

COc1ccccc1N=C1NC(=O)/C(=C/C2CCCCC2)S1
activity change, negative = inhibition: inactive

COc1ccccc1N=C1NC(=O)/C(=C/c2ccccn2)S1
activity change, negative = inhibition: inactive
